Experimental data as given in US11702404B2, “GLP-1R modulating compounds” (priority 2019, dated 2023).

Columns and labels:
[1] = Microsomal stability, human liver microsomes (predicted hepatic clearance); conditions: predicted from in vitro microsomal stability data
[2] = target: GLP-1R (Homo sapiens, UniProt P43220); experiment: GLP-1R activation: cAMP increase in CHO cells stably expressing GLP-1R; type: cell-based; conditions: cAMP increase, CHO cells stably expressing GLP-1R, 10 point dose response, 30 minutes incubation; read-out: EC50
GLP-1R, sequence (P43220 24-463): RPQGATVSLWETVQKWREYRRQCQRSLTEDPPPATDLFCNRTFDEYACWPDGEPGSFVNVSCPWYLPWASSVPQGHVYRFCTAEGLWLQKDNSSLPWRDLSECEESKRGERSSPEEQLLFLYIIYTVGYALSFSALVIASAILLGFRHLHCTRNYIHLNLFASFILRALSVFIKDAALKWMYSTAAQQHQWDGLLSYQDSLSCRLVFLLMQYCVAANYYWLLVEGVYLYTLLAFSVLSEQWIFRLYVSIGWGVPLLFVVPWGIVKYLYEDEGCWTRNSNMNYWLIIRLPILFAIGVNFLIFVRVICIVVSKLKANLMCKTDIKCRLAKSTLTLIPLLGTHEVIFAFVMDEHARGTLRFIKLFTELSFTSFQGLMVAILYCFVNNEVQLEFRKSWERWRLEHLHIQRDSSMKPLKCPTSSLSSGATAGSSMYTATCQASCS

For COCCn1c(Cc2ccc(-c3cccc(NCc4ccc(C#N)cc4F)n3)cc2F)nc2ccc(C(=O)O)cc21 [Example 170, 2-(4-(6-((4-cyano-2-fluorobenzyl)amino)pyridin-2-yl)-2-fluorobenzyl)-1-(2-methoxyethyl)-1H-benzo[d]imidazole-carboxylic acid], the “Predicted Hepatic Clearance (Pred. Cl.)” value [1] was 6.33 mL/min/kg and the EC50 [2] was 0.509 µM.

In the case of N#Cc1ccc(COc2cccc(-c3cc(F)c(Cc4nc5ccc(C(=O)O)cc5n4CC4(F)CC4)cc3F)n2)c(F)c1 [Example 729], the “Predicted Hepatic Clearance (Pred. Cl.)” value [1] is reported as 1.83 mL/min/kg and the EC50 [2] is reported as 0.00103 µM.

For CO[C@@H](C)Cn1c(Cc2ccc(-c3cccc(OCc4ccc(C#N)cc4F)n3)cc2F)nc2ccc(C(=O)O)cc21 [Example 331, (S)-2-(4-(6-((4-cyano-2-fluorobenzyl)oxy)pyridin-2-yl)-2-fluorobenzyl)-1-(2-methoxypropyl)-1H-benzo[d]imidazole-6-carboxylic acid], the “Predicted Hepatic Clearance (Pred. Cl.)” value [1] was 4 mL/min/kg and the EC50 [2] was 0.0123 µM.

In the case of COCCn1c(Cc2cc(F)c(-c3cccnc3OCc3ccc(C#N)cc3F)cc2F)nc2ccc(C(=O)O)cc21 [Example 211, 2-(4-(2-((4-cyano-2-fluorobenzyl)oxy)pyridin-3-yl)-2,5-difluorobenzyl)-1-(2-methoxyethyl)-1H-benzo[d]imidazole-carboxylic acid], the “Predicted Hepatic Clearance (Pred. Cl.)” value [1] is reported as 8.17 mL/min/kg and the EC50 [2] is reported as 0.126 µM.

With C[C@@]1(Cn2c(Cc3ccc(-c4cccc(OCc5ccc(C#N)cc5F)n4)cc3F)nc3ccc(C(=O)O)cc32)CCO1 [Example 105, (S)-2-(4-(6-((4-cyano-2-fluorobenzyl)oxy)pyridin-2-yl)-2-fluorobenzyl)-1-((2-methyloxetan-2-yl)methyl)-1H-benzo[d]imidazole-6-carboxylic acid] the “Predicted Hepatic Clearance (Pred. Cl.)” value [1] was 6.33 mL/min/kg and the EC50 [2] was 0.00045 µM.

For COCCn1c(Cc2ccc(-c3cccnc3OCc3ccc(C#N)cc3F)c(F)c2)nc2ccc(C(=O)O)cc21 [Example 108, 2-(4-(2-((4-cyano-2-fluorobenzyl)oxy)pyridin-3-yl)-3-fluorobenzyl)-1-(2-methoxyethyl)-1H-benzo[d]imidazole-6-carboxylic acid], the “Predicted Hepatic Clearance (Pred. Cl.)” value [1] was 4.33 mL/min/kg and the EC50 [2] was 0.388 µM.

With COc1cc(Cl)ccc1COc1cccc(-c2cc(F)c(Cc3nc4ccc(C(=O)O)cc4n3CC3(CC#N)CC3)cc2F)n1 [Example 443, 2-(4-(6-((4-chloro-2-methoxybenzyl)oxy)pyridin-2-yl)-2,5-difluorobenzyl)-1-((1-(cyanomethyl)cyclopropyl)methyl)-1H-benzo[d]imidazole-6-carboxylic acid] the “Predicted Hepatic Clearance (Pred. Cl.)” value [1] was 11 mL/min/kg and the EC50 [2] was 0.00015 µM.

For N#Cc1ccc(COc2cccc(-c3cc(F)c(Cc4nc5ccc(C(=O)O)cc5n4Cc4ccon4)c(F)c3)n2)c(F)c1 [Example 594, 2-(4-(6-((4-cyano-2-fluorobenzyl)oxy)pyridin-2-yl)-2,6-difluorobenzyl)-1-(isoxazol-3-ylmethyl)-1H-benzo[d]imidazole-6-carboxylic acid], the “Predicted Hepatic Clearance (Pred. Cl.)” value [1] was 4.33 mL/min/kg and the EC50 [2] was 0.00077 µM.

For COCCn1c(Cc2c(F)cc(-c3cccnc3OC(C)c3ccc(Cl)cc3F)cc2F)nc2ccc(C(=O)O)cc21 (stereo not shown) [Example 372, 2-(4-(2-(1-(4-chloro-2-fluorophenyl)ethoxy)pyridin-3-yl)-2,6-difluorobenzyl)-1-(2-methoxyethyl)-1H-benzo[d]imidazole-6-carboxylic acid], the “Predicted Hepatic Clearance (Pred. Cl.)” value [1] was 7.83 mL/min/kg and the EC50 [2] was 0.243 µM.

With COCCn1c(Cc2ccc(-c3cccc(OCc4ccc(C#N)cc4F)n3)s2)nc2ccc(C(=O)O)cc21 [Example 4, 2-((5-(6-((4-cyano-2-fluorobenzyl)oxy)pyridin-2-yl)thiophen-2-yl)methyl)-1-(2-methoxyethyl)-1H-benzo[d]imidazole-6-carboxylic acid] the “Predicted Hepatic Clearance (Pred. Cl.)” value [1] was 13.7 mL/min/kg and the EC50 [2] was 1.57 µM.

For O=C(O)c1ccc2nc(Cc3cc(F)c(-c4cccc(OCc5ccc(Cl)cc5F)n4)cc3F)n(C[C@@H]3CCO3)c2c1 [Example 663], the “Predicted Hepatic Clearance (Pred. Cl.)” value [1] was 1.83 mL/min/kg and the EC50 [2] was 0.00051 µM.
